The values that follow come from article PMC10143053, “Probing the Interactions of 31 Mycotoxins with Xanthine Oxidase: Alternariol, Alternariol-3-Sulfate, and α-Zearalenol Are Allosteric Inhibitors of the Enzyme” (Toxins, 2023).

What is called IC50 is the point on the concentration scale where inhibition reaches its midpoint.

Read-outs that look alike come from different tables or passages of the source.

The experiment addresses T1, xanthine oxidase (Bos taurus, UniProt P80457).
T1 construct: gene XDH
Kind of experiment: biochemical.

T1 sequence (P80457 2-1332): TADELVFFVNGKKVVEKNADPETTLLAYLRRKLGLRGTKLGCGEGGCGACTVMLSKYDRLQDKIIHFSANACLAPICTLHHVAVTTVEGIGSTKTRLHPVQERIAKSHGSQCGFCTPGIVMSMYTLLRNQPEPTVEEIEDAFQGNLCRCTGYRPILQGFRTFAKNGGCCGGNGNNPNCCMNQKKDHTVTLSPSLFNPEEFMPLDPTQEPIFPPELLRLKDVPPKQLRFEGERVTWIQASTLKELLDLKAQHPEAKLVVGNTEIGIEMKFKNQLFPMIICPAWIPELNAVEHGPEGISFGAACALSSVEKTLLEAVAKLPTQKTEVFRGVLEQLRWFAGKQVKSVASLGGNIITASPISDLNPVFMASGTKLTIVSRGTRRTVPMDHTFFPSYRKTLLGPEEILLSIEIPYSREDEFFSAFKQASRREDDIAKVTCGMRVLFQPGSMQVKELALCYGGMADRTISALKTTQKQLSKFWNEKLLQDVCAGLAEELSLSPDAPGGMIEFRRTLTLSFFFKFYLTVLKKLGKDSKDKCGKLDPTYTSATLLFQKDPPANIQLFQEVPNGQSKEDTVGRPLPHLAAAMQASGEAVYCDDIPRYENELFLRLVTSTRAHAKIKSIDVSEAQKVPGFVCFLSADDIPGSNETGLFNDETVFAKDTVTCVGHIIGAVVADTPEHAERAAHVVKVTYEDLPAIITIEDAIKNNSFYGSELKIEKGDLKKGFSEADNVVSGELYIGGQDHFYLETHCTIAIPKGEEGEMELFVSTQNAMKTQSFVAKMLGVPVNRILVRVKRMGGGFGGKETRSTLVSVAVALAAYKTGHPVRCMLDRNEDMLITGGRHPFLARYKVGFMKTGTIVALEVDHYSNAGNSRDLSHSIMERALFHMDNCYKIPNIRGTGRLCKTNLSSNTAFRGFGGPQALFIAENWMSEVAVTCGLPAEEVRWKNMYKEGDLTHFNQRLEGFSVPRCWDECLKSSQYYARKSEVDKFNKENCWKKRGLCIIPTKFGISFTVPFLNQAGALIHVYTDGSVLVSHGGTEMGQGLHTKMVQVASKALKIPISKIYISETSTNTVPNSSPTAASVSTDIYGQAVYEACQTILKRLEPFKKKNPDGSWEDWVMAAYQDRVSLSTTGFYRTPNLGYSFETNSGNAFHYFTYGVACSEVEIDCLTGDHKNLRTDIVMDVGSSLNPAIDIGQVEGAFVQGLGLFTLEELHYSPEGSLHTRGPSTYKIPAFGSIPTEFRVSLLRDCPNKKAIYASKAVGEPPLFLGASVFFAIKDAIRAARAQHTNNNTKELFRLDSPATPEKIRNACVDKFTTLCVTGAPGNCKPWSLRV

As to `Cc1cc(O)cc2oc(=O)c3c(O)cc(O)cc3c12` [AOH, alternariol], it took 10.6 µM to reach half-maximal inhibition (IC50).
On to `Cc1cc(OS(=O)(=O)O)cc2oc(=O)c3c(O)cc(O)cc3c12` [AS, alternariol-3-sulfate], for which the IC50 (read-out: IC50) turned out to be 15 µM.
As to `C[C@H]1CCC[C@H](O)CCC/C=C/c2cc(O)cc(O)c2C(=O)O1` [α-ZEL, α-zearalenol], the IC50 (read-out: IC50) came out at 17.1 µM.
